Measured values reported in US9145376B2, “Quinazolinone inhibitors of dynein” (The Rockefeller University, priority 2011, dated 2015).

Experiments:
[1] = system: Gli3 processing in Shh-EGFP cells; assay: Quantitative assessment of Hh ligand-dependent Gli3 processing; assay type: cell-based; conditions: Shh-EGFP cells stimulated with Shh-N, 16 hours
Description: Shh-EGFP cells were seeded into 12-well plate at a density of 120,000 cells/well in DMEM containing 10% calf serum. 100 U/mL penicillin, and 0.1 mg/mL streptomycin. After being cultured for 24 hours, the cells were transferred into DMEM containing 0.5% calf serum, 10% Shh-conditioned medium, the antibiotics described above, and either individual compounds or DMSO. The cells were cultured for an additional 16 hours, washed with PBS, and then lysed by incubation on ice with SDS-PAGE loading buffer composed of 8% glycerol, 20 mM Tris-HCl, pH 6.8, 2% SDS, 100 mM DTT, 1 mM PMSF, 20 mM NaF, 2 mM Na3VO4, and an EDTA-free protease inhibitor cocktail (Roche). The lysed samples were heated to 100° C. for 7 minutes, loaded onto 3-8% Criterion XT Tris-Acetate polyacrylamide gels (Bio-Rad), electrophoresed in XT Tricine buffer (Bio-Rad), and transferred onto PVDF membranes. The membranes were dehydrated with methanol and probed overnight at 4° C. with goat polyclonal anti-Gli3 antibody (0.4 μg/mL: R & D Systems, AF3690) in PBS containing 4% non-fat dry milk and 0.1% Tween-20 (immunoblot blocking buffer). The blots were then washed 4×1 minutes in PBS and incubated with horseradish peroxidase-conjugated bovine polyclonal anti-goat IgG antibody (0.04 μg/mL, Jackson ImmunoResearch, 805-035-180) in immunoblot blocking buffer for 1 hour at room temperature. The membranes were next washed 4×1 minutes in PBS and visualized using SuperSignal West Dura Extended Duration substrate (Thermo Scientific) and a ChemiDoc XRS imaging system (Bio-Rad). Band intensities of Gli3FL and Gli3R where quantified using Quantity One software (Bio-Rad), and five independent experiments were used to determine the average Gli3FL/Gli3R ratio for each compound.

[2] = molecular target: T1, K560, N-terminal fragment of human conventional kinesin (kinesin-1) (Homo sapiens, UniProt P33176); assay: Microtubule surface gliding assay, K560/kinesin-1; assay type: biochemical; conditions: 100 μM
T1 construct: K560, a 560-amino acid N-terminal fragment of human conventional kinesin (kinesin-1); His-tag (C); made in house; host or cells: bacteria
T1 sequence (P33176 1-560): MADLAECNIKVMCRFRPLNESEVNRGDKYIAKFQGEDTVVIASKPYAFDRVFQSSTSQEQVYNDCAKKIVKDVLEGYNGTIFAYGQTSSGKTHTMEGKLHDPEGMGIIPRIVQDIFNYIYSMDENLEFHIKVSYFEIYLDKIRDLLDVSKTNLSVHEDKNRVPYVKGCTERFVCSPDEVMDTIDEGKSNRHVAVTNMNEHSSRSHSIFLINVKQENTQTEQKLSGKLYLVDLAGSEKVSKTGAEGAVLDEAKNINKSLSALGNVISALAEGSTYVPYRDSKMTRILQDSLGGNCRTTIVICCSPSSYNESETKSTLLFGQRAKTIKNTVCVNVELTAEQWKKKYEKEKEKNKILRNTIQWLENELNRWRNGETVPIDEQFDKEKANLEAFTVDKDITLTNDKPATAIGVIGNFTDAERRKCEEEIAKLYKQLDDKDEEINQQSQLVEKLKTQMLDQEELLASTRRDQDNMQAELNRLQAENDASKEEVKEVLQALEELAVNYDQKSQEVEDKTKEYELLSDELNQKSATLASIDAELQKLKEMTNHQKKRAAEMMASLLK
Description: Cytoplasmic dynein was purified from bovine brains as described by Bingham et al. [Methods Enzymol. 298, 171 (1998)]. K560, a 560-amino acid N-terminal fragment of human conventional kinesin (kinesin-1) with a C-terminal His-tag, was expressed in bacteria and purified as described by Woehlke et al., [Cell 90, 207 (1997)]. Motility assays were performed on a Zeiss Axiovert 200M wide-field microscope equipped with a Zeiss 100×/1.45 NA α-Plan-Fluar objective. Data were captured with an EM-CCD camera (iXon DU-897, Andor Technology) with a 0.3-second exposure time and frame rate of 0.5 second^−1. Microtubule gliding assays were performed as described by Kapoor and Mitchison [Proc. Natl. Acad. Sci. U.S.A. 96, 9106 (1999)] with some modifications. An approximately 6 μL flow chamber was filled with motor protein (100 μg/mL dynein or 50 μg/mL K560) in motor dilution buffer (80 mM Pipes, 1 mM EGTA, 2 mM MgCl2, 2 mM DTT, 50 μM ATP, pH 6.8 with KOH). […] After allowing the microtubules to bind to the surface for 5 minutes, the gliding microtubules were visualized by time-lapse fluorescence microscopy. Velocities were measured by kymography using Metamorph software (Molecular Devices), and the velocity for each microtubule was determined from the total distance during the time observed.

Structure (SMILES)	Gli3FL/Gli3R ratio [1]	Shh-N-dependent Gli3FL phosphorylation [1]	K560/kinesin-1-dependent microtubule gliding [2]
N#C/C(C(=O)c1ccc(Cl)cc1Cl)=C1\NC(=O)c2ccccc2N1 [Example 1, 3-(2,4-dichlorophenyl)-3-oxo-2-(4-oxo-3,4-dihydroquinazolin-2(1H)-ylidene)propanenitrile]	altered the Gli3FL/Gli3R ratio	reduced	Neither ciliobrevin significantly affected
N#C/C(C(=O)c1ccc(Cl)cc1Cl)=C1\NC(=O)c2ccc(Cl)cc2N1 [Example 31, 2-(7-chloro-4-oxo-3,4-dihydroquinazolin-2(1H)-ylidene)-3-(2,4-dichlorophenyl)-3-oxo-propanenitrile]	altered the Gli3FL/Gli3R ratio	reduced	Neither ciliobrevin significantly affected
